From article PMC6627609, “Targeting Quorum Sensing: High-Throughput Screening to Identify Novel LsrK Inhibitors” (International Journal of Molecular Sciences, 2019) come the findings set out here.

LsrK, sequence (Q8ZKQ6 whole entry): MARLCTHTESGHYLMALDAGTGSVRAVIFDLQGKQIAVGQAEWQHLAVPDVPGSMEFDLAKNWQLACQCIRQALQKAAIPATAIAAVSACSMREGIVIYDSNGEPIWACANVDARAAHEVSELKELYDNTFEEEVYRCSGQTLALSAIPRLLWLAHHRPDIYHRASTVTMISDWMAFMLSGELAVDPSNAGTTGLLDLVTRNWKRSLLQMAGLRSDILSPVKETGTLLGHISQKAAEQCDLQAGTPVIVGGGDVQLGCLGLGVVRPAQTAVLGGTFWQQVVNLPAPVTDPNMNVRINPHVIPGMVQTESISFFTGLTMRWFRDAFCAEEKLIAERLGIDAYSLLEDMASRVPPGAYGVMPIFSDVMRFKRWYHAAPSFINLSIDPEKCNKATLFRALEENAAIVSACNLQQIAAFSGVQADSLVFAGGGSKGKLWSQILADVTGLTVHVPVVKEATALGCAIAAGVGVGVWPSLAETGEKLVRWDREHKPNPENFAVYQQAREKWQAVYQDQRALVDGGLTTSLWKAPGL

The first assay has as its target LsrK (Salmonella typhimurium, UniProt Q8ZKQ6). Kind of assay: biochemical. It is filed as biochemical, S. typhimurium.
Details: not given
Regarding `COc1ccc(C(=O)N2CCCC2=O)cc1`, the inhibition at 50 µM stood at 0%.
Take `COC(=O)[C@H](Cc1ccccc1)NC(=O)[C@@H](N)CC(=O)O`: the inhibition at 50 µM was 0%.
Same read-out and setting: the value for `C=CC1=C(C(=O)O)N2C(=O)[C@@H](NC(=O)/C(=N\O)c3csc(N)n3)[C@H]2SC1` was 17%.
Still for that read-out and setting: the value for `CCN(CC)C(=S)SSC(=S)N(CC)CC` was 154%; that for `CCN(CC)C(=O)c1ccc(O)c(OC)c1` was 0%; that for `CNc1ccccc1C(=O)O` was 1%.
The same measure, in the same setting: the value for `CCOC(=O)[C@H](CCc1ccccc1)N[C@@H](C)C(=O)N1[C@H](C(=O)O)C[C@@H]2CCC[C@@H]21` was 3%; that for `CC(=O)Nc1ccc(S(=O)(=O)Nc2ccc([N+](=O)[O-])cc2)cc1` was 1%.
Turning to `CC1=C(CC(=O)O)c2cc(F)ccc2/C1=C\c1ccc([S+](C)[O-])cc1` (stereo not drawn), the inhibition at 50 µM worked out at 21%.
Still for that read-out and setting: next, `CN1CC(=O)N2[C@H](c3ccc4c(c3)OCO4)c3[nH]c4ccccc4c3C[C@@H]2C1=O`: 1%.
Still for that read-out and setting: the value for `COc1ccc2c(c1)OC[C@@H](Cc1ccc(OC)c(OC)c1)[C@H]2O` was 2%; that for `COc1ccc(/C=C/C(=O)Nc2ccccc2C(=O)O)cc1OC` was 15%; that for `Nc1nc(N)c2nc(-c3ccccc3)c(N)nc2n1` was 0%.
Still for that read-out and setting: next, `CCOC(N)=O`: 0%.
Regarding `CCCCC(=O)N(Cc1ccc(-c2ccccc2-c2nnn[nH]2)cc1)[C@H](C(=O)O)C(C)C`, the inhibition at 50 µM came to 1%.
Still for that read-out and setting: next, `CC(C)CC(NC(=O)[C@H](C)N)C(=O)O` (mixture of isomers) [ALANYL-dl-LEUCINE]: 2%; `OC[C@H]1O[C@@H](O[C@@H]2[C@@H](CO)OC(O)(CO)[C@H]2O)[C@H](O)[C@@H](O)[C@H]1O` (mixture of isomers) [LACTULOSE]: 2%.
The same measure, in the same setting: the value for `Nc1ccccc1S(N)(=O)=O` [2-AMINOBENZENESULFONAMIDE] was 1%.
The same measure, in the same setting: next, `COC1=CC(=O)C(C(=O)c2ccccc2)=CC1=O` [2-BENZOYL-5-METHOXYBENZOQUINONE]: 38%; `Sc1nc2ccccc2s1` [2-MERCAPTOBENZOTHIAZOLE]: 1%; `COC1(C)CCC2OC2(C)CCC2C1CC2(C)C` (stereo not drawn) [2-METHOXY-5 (6)EPOXY-TETRAHYDROCARYOPHYLLENE]: 0%.
Consider `COc1c(O)cccc1O` [2-METHOXYRESORCINOL], for which the inhibition at 50 µM came to 0%.
On the same count and under the same terms, the value for `CC(=O)c1cc2ccccc2oc1=O` [3-ACETYLCOUMARIN] was 0%; that for `C=C1C(N)CC2CC1C2(C)C` (stereo not drawn) [3-AMINO-beta-PINENE] was 1%; that for `CC(=O)O[C@H]1C[C@@H](O)C(C)(C)[C@@H]2C[C@@H](OC(C)=O)[C@]3(C)[C@H](CC[C@@]4(C)[C@@H](c5ccoc5)OC(=O)[C@H]5O[C@@]534)[C@@]12C` [3-DEACETYLKHIVORIN] was 99%.
Same read-out and setting: the value for `CC(=O)O[C@H]1CC[C@]2(C)C(C[C@@H](OC(C)=O)[C@]3(C)C4=CC(=O)O[C@H](c5ccoc5)[C@@]4(C)CCC23)C1(C)C` (stereo partly drawn) [3-DEOXO-3beta-ACETOXYDEOXYDIHYDROGEDUNIN] was 5%; that for `COC(=O)C[C@H]1C(C)(C)[C@@H](O)[C@@H]2CC3=C4C=C(OC)O[C@@H](c5ccoc5)[C@]4(C)CCC3[C@@]1(C)C2=O` (stereo partly drawn) [3-DEOXO-3beta-HYDROXYMEXICANOLIDE 16-ENOL ETHER] was 2%; that for `C=C1[C@H]2CC[C@@]3(C)[C@H](c4ccoc4)OC(=O)C[C@]13O[C@H]1C[C@H](O)C(C)(C)[C@H](CC(=O)OC)[C@]12C` [3-DEOXY-3beta-HYDROXY[…] METHYL ESTER] was 1%.
Same read-out and setting: the value for `COc1ccc2c(c1)OC[C@@H](Cc1ccc(OC)c(OC)c1)[C@@H]2O` [3-DESHYDRO[…] ETHER] was 3%.
For the compound `COc1cccc(O)c1O` [3-METHOXYCATECHOL], the inhibition at 50 µM came to 118%.
The same measure, in the same setting: the value for `Cc1cc(O)c(C)c(O)c1C(=O)O` [3-METHYL[…]] was 1%.
On the same count and under the same terms, next, `C[C@@H]1CC[C@@]23CCC4(C)[C@@](C=CC5[C@@]6(C)CCC(=O)C(C)(C)C6CC[C@]54C)(OC2=O)C3[C@H]1C` (stereo partly drawn) [3-OXOURSAN (28-13)OLIDE]: 1%.
The same measure, in the same setting: next, `O=C(/C=C/c1ccccc1)c1ccc(O)cc1` [4'-HYDROXYCHALCONE]: 38%; `COc1ccc(C(=O)/C=C/c2ccccc2)cc1` [4'-METHOXYCHALCONE]: 12%; `C=CC(C1=CC(=O)C(OC)=CC1=O)c1ccccc1` (stereo not drawn) [4-METHOXYDALBERGIONE]: 52%.
`Cc1cc(=O)oc2c(O)c(O)ccc12` [4-METHYLDAPHNETIN]: the inhibition at 50 µM turned out to be 1%.
On the same count and under the same terms, the value for `Cc1cc(=O)oc2cc(O)c(O)cc12` [4-METHYLESCULETIN] was 2%.

The same assay, now with this note: 50 µM.
Take `CC1(C)C2CC(=O)[C@]3(C)C(CC[C@@]4(C)[C@H](c5ccoc5)OC(=O)C5OC543)[C@@]2(C)[C@@H](O)C[C@H]1O` (stereo partly drawn): the “Inhibition (%)” value is reported as 2.
Still for that read-out and setting: the value for `CCOc1cccc(C(=O)c2ccc(O)c(O)c2O)c1` was 11; that for `COC(=O)NC(=S)Nc1ccccc1NC(=S)NC(=O)OC` was 3; that for `CC[C@H](C=C[C@@H](C)[C@H]1CC[C@H]2[C@@H]3CCC4=CC(=O)CC[C@]4(C)[C@H]3CC[C@]12C)C(C)C` was 1.
For the compound “3-BROMO-4-METHYL-3.4-HEXAMETHYLENE-3.4-DIHYDRODIAZETE-1.2-DIOXIDE”, the “Inhibition (%)” value worked out at 1.
On the same count and under the same terms, next, `C=CC[S+]([O-])C[C@H](N)C(=O)O` (mixture of isomers) [L(+/-)-ALLIIN]: 44; `COc1cc(O)c(C(=O)/C=C/c2ccc(OC)c(O)c2)c(OC)c1` [2'.3-DIHYDROXY-4.4'.6'-TRIMETHOXYCHALCONE]: 2; `COc1ccc(/C=C/C(=O)c2ccc(O)cc2O)cc1` [2'.4'-DIHYDROXY-4-METHOXYCHALCONE]: 2.
As for `O=C(/C=C/c1ccccc1)c1ccc(O[C@@H]2O[C@H](CO)[C@@H](O)[C@H](O)[C@H]2O)cc1O` [2'.4'-DIHYDROXYCHALCONE 4'-GLUCOSIDE], the “Inhibition (%)” value is 2.
As for `O=C(/C=C/c1ccccc1)c1ccc(O)cc1O` [2'.4'-DIHYDROXYCHALCONE], the “Inhibition (%)” value is 19.
As to `COc1cc(O)c(C(=O)/C=C/c2ccc(O)c(OC)c2)c(OC)c1` [2'.4-DIHYDROXY-3.4'.6'-TRIMETHOXYCHALCONE], the “Inhibition (%)” value worked out at 1.
The same measure, in the same setting: the value for `O=C(/C=C/c1ccc(O)cc1)c1ccccc1O` [2'.4-DIHYDROXYCHALCONE] was 58.
As for `COc1ccc(/C=C/C(=O)c2cc(O)ccc2O)cc1` [2'.5'-DIHYDROXY-4-METHOXYCHALCONE], the “Inhibition (%)” value came to 102.
Turning to `COc1ccc(C(=O)O)c(O)c1OC` [2-HYDROXY-3.4-DIMETHOXYBENZOIC ACID], the “Inhibition (%)” value came to 1.
Same read-out and setting: next, `O=C1C(Cl)=C(Cl)C(=O)c2c(O)ccc(O)c21` [2.3-DICHLORO-5.8-DIHYDROXYNAPTHOQUINONE]: 30; `CCOc1ccc(C(=O)c2ccc(OC)c(O)c2O)cc1` [2.3-DIHYDROXY-4-METHOXY-4'-ETHOXYBENZOPHENONE]: 16; `O=C(O)C(S)C(S)C(=O)O` (stereo not drawn) [2.3-DIMERCAPTOSUCCINIC ACID]: 88.
Still for that read-out and setting: the value for `CCOc1ccc(C(=O)c2ccc(O)c(O)c2O)cc1` [2.3.4-TRIHYDROXY-4'-ETHOXYBENZOPHENONE] was 79; that for `O=[N+]([O-])c1ccc(O)c([N+](=O)[O-])c1` [2.4-DINITROPHENOL] was 4; that for `COc1cc(O)c(C)c(O)c1` [2.6-DIHYDROXY-4-METHOXYTOLUENE] was 1.
On to `COC1=CC(=O)C=C(OC)C1=O` [2.6-DIMETHOXYQUINONE], for which the “Inhibition (%)” value amounted to 50.
With `Nc1nc[nH]n1` [3-AMINO-1.2.4-TRIAZOLE], the “Inhibition (%)” value is 1.
Same read-out and setting: next, `COc1ccc(-c2oc3ccccc3c(=O)c2O)cc1OC` [3-HYDROXY-3'.4'-DIMETHOXYFLAVONE]: 0; `c1ccc2c(Cc3c[nH]c4ccccc34)c[nH]c2c1` [3.3'-DIINDOLYLMETHANE]: 0; `O=c1c(O)c(-c2ccccc2)oc2cc(O)ccc12` [3.7-DIHYDROXYFLAVONE]: 0.
On the same count and under the same terms, next, `CC1(C)CC2C1CCC1(C)OC2(C)CCC1O` (stereo not drawn) [3.7-EPOXYCARYOPHYLLAN-6-OL]: 2.
On the same count and under the same terms, next, `CC12CCC3C(CC3(C)C)C(C)(CCC1=O)O2` (stereo not drawn) [3.7-EPOXYCARYOPHYLLAN-6-ONE]: 1; `COC(=O)C[C@H]1C(C)(C)[C@@H](O)[C@@H]2CC3=C4CC(O)O[C@@H](c5ccoc5)[C@]4(C)CCC3[C@@]1(C)C2=O` (stereo partly drawn) [3.16-DIDEOXYMEXICANOLIDE-3beta-DIOL]: 0; `CC(=O)O[C@H]1CC[C@]2(C)[C@H]3CC[C@@]4(C)[C@H](c5ccoc5)OC(=O)[C@H]5O[C@]54[C@]3(C)[C@H](OC(C)=O)C[C@H]2C1(C)C` [3beta-ACETOXYDEOXODIHYDROGEDUNIN]: 2.
Take `C[C@@H]1CC[C@@]2(OC1)O[C@H]1C[C@H]3[C@@H]4CC[C@H]5C[C@@H](O)CC[C@]5(C)C4=CC[C@]3(C)[C@H]1[C@@H]2C` [3beta-HYDROXYISOALLOSPIROST-9(11)-ENE]: the “Inhibition (%)” value stood at 2.
Take `CCCCOc1cc(CC2CNC(=O)N2)ccc1OC` (stereo not drawn) [4-(3-BUTOXY-4-METHOXYBENZYL)IMIDAZOLIDIN-2-ONE]: the “Inhibition (%)” value is given as 1.
Same read-out and setting: next, `COc1cc(O)c(C(C)=O)c(O)c1` [4-O-METHYLPHLORACETOPHENONE]: 2; `C=CC(C1=CC(=O)C(OC)=CC1=O)c1ccc(OC)cc1` (stereo not drawn) [4.4'-DIMETHOXYDALBERGIONE]: 98; `O=c1c(-c2ccccc2)coc2cc(O)cc(O)c12` [5.7-DIHYDROXYISOFLAVONE]: 106.

Staying with this assay, now noted: read-out: IC50 against LsrK.
Turning to `COc1ccc(/C=C/C(=O)c2cc(O)ccc2O)cc1` [2'.5'-DIHYDROXY-4-METHOXYCHALCONE], the IC50 was more than 50 µM.
